Measured values taken from PubChem BioAssay AID248 (DTP/NCI, 2004).
“And” between values parts separate entries of the source, which are not always exact repeats. Equal entries are not always repeated. Inconclusive results and toxic doses are left out.

Test system: L1210 leukemia ip in BDF1 mice, survival T/C
Experiment: NCI In Vivo Anticancer Drug Screen. Data for tumor model L1210 Leukemia (intraperitoneal) in B6D2F1 (BDF1) mice
Conditions: endpoint: mean survival time, higher = longer survival
Outline: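 Each compound was tested against a transplantable tumor grown in mice. The endpoint was survival, with treated animals benchmarked against vehicle controls as a simple ratio.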

[1] = dose: 100.0 mg/kg/injection, schedule: Q01DX009 (ip), vehicle: gum acacia
[2] = dose: 200.0 mg/kg/injection, schedule: Q01DX009 (ip), vehicle: gum acacia
[3] = dose: 400.0 mg/kg/injection, schedule: Q01DX009 (ip), vehicle: gum acacia
[4] = dose: 100.0 mg/kg/injection, schedule: Q01DX001 (ip), vehicle: Klucel (hydroxypropylcellulose) (HPC)
[5] = dose: 200.0 mg/kg/injection, schedule: Q01DX001 (ip), vehicle: Klucel (hydroxypropylcellulose) (HPC)
[6] = dose: 400.0 mg/kg/injection, schedule: Q01DX001 (ip), vehicle: Klucel (hydroxypropylcellulose) (HPC)
[7] = dose: 100.0 mg/kg/injection, schedule: Q01DX001 (ip), vehicle: saline
[8] = dose: 100.0 mg/kg/injection, schedule: Q04DX003 (ip), vehicle: Klucel (hydroxypropylcellulose) (HPC)
[9] = dose: 200.0 mg/kg/injection, schedule: Q04DX003 (ip), vehicle: Klucel (hydroxypropylcellulose) (HPC)
[10] = dose: 200.0 mg/kg/injection, schedule: Q01DX001 (ip), vehicle: saline
[11] = dose: 400.0 mg/kg/injection, schedule: Q01DX001 (ip), vehicle: saline

Structure (SMILES): O=[N+]([O-])c1ccc(N/N=C(\Cc2ccccc2)CC(O)(C(F)(F)F)C(F)(F)F)c([N+](=O)[O-])c1
- T/C (dose: 25.0 mg/kg/injection, schedule: Q01DX009 (ip), vehicle: gum acacia): 92 % of control
- T/C (dose: 50.0 mg/kg/injection, schedule: Q01DX009 (ip), vehicle: gum acacia): 96 % of control
- T/C (dose: 100.0 mg/kg/injection, schedule: Q01DX001 (ip), vehicle: gum acacia): 106 % of control
- T/C [1]: 98 % of control
- T/C (dose: 200.0 mg/kg/injection, schedule: Q01DX001 (ip), vehicle: gum acacia): 100 % of control
- T/C [2]: 94 % of control
- T/C (dose: 400.0 mg/kg/injection, schedule: Q01DX001 (ip), vehicle: gum acacia): 98 % of control
- T/C [3]: 93 % of control

Structure (SMILES): C#CC(C)N1CCC2(CC1)C(=O)NCN2c1ccccc1 (centres undefined)
- T/C [4]: 98 % of control
- T/C [5]: 97 % of control
- T/C [6]: 95 % of control

Structure (SMILES): Cc1cc2cc3n(c2nn1)N=C(Cl)CC3
- T/C (dose: 80.0 mg/kg/injection, schedule: Q04DX002 (ip), vehicle: Klucel (hydroxypropylcellulose) (HPC)): 106 % of control
- T/C (dose: 160.0 mg/kg/injection, schedule: Q04DX002 (ip), vehicle: Klucel (hydroxypropylcellulose) (HPC)): 118 % of control
- T/C (dose: 320.0 mg/kg/injection, schedule: Q04DX002 (ip), vehicle: Klucel (hydroxypropylcellulose) (HPC)): 168 % of control

Structure (SMILES): CC(=O)n1cc(CS)c(=O)[nH]c1=O
- T/C [7]: 106 % of control

Structure (SMILES): CC(C)(O)C(=NCc1ccccc1)c1ccccc1
- T/C (dose: 75.0 mg/kg/injection, schedule: Q04DX003 (ip), vehicle: other): 97 % of control
- T/C (dose: 150.0 mg/kg/injection, schedule: Q04DX003 (ip), vehicle: other): 92 % of control
- T/C (dose: 300.0 mg/kg/injection, schedule: Q04DX003 (ip), vehicle: other): 98 % of control

Structure (SMILES): C=Cc1ccccn1
- T/C (dose: 75.0 mg/kg/injection, schedule: Q01DX001 (ip), vehicle: saline): 98 % of control
- T/C (dose: 150.0 mg/kg/injection, schedule: Q01DX001 (ip), vehicle: saline): 102 % of control
- T/C (dose: 300.0 mg/kg/injection, schedule: Q01DX001 (ip), vehicle: saline): 97 % of control

Structure (SMILES): O=C(OCc1ccccc1CN1CCCCC1)c1cccc(Cl)c1
- T/C (dose: 100.0 mg/kg/injection, schedule: Q04DX002 (ip), vehicle: Klucel (hydroxypropylcellulose) (HPC)): 109 % of control
- T/C (dose: 200.0 mg/kg/injection, schedule: Q04DX002 (ip), vehicle: Klucel (hydroxypropylcellulose) (HPC)): 98 % of control
- T/C (dose: 400.0 mg/kg/injection, schedule: Q04DX002 (ip), vehicle: Klucel (hydroxypropylcellulose) (HPC)): 91 % of control

Structure (SMILES): CCCC(F)C(Br)C(=O)O (centres undefined)
- T/C (dose: 100.0 mg/kg/injection, schedule: Q04DX002 (ip), vehicle: other): 90 % of control
- T/C (dose: 200.0 mg/kg/injection, schedule: Q04DX002 (ip), vehicle: other): 90 % of control
- T/C (dose: 400.0 mg/kg/injection, schedule: Q04DX002 (ip), vehicle: other): 90 % of control

Structure (SMILES): COc1cc(C)c2c([N+](=O)[O-])cc([N+](=O)[O-])c(OC)c2n1
- T/C (dose: 75.0 mg/kg/injection, schedule: Q01DX009 (ip), vehicle: Klucel (hydroxypropylcellulose) (HPC)): 98 % of control
- T/C [8]: 106 % of control
- T/C (dose: 150.0 mg/kg/injection, schedule: Q01DX009 (ip), vehicle: Klucel (hydroxypropylcellulose) (HPC)): 101 % of control
- T/C [9]: 93 % of control
- T/C (dose: 300.0 mg/kg/injection, schedule: Q01DX009 (ip), vehicle: Klucel (hydroxypropylcellulose) (HPC)): 95 % of control
- T/C (dose: 400.0 mg/kg/injection, schedule: Q04DX003 (ip), vehicle: Klucel (hydroxypropylcellulose) (HPC)): 103 % of control

Structure (SMILES): Nc1ncnc2c1ncn2C1CC(O)C(O)CO1 (centres undefined)
- T/C [7]: 105 % of control
- T/C [10]: 106 % of control
- T/C [11]: 105 % of control

Structure (SMILES): Cn1ncc2c(NCc3ccccc3)ncnc21
- T/C [7]: 97 % of control
- T/C [10]: 110 % of control

Structure (SMILES): CCOC(=O)c1ccc(=O)[nH]c1.[Ag]
- T/C (dose: 6.25 mg/kg/injection, schedule: Q01DX009 (ip), vehicle: Klucel (hydroxypropylcellulose) (HPC)): 94 % of control
- T/C (dose: 12.5 mg/kg/injection, schedule: Q01DX009 (ip), vehicle: Klucel (hydroxypropylcellulose) (HPC)): 90 % of control
- T/C (dose: 25.0 mg/kg/injection, schedule: Q01DX009 (ip), vehicle: Klucel (hydroxypropylcellulose) (HPC)): 90 % of control
- T/C (dose: 50.0 mg/kg/injection, schedule: Q01DX009 (ip), vehicle: Klucel (hydroxypropylcellulose) (HPC)): 86 % of control
- T/C [8]: 95 % of control
- T/C [9]: 92 % of control

Structure (SMILES): COc1ccccc1/C=N/N=C(/N)N[N+](=O)[O-]
- T/C [4]: 102 % of control
- T/C [5]: 101 % of control
- T/C [6]: 98 % of control

Structure (SMILES): O=[N+]([O-])c1ccc(O)c(C2CCCCC2)c1
- T/C [1]: 92 % of control
- T/C [2]: 87 % of control
- T/C [3]: 86 % of control

Structure (SMILES): O=C(Nc1nccs1)c1cc2ccccc2cc1O
- T/C (dose: 100.0 mg/kg/injection, schedule: Q04DX002 (ip), vehicle: saline with Tween-80): 97 % of control
- T/C (dose: 200.0 mg/kg/injection, schedule: Q04DX002 (ip), vehicle: saline with Tween-80): 87 % of control
- T/C (dose: 400.0 mg/kg/injection, schedule: Q04DX002 (ip), vehicle: saline with Tween-80): 87 % of control

Structure (SMILES): O=C(O)c1ccc(Cl)o1
- T/C (dose: 100.0 mg/kg/injection, schedule: Q01DX009 (ip), vehicle: Klucel (hydroxypropylcellulose) (HPC)): 97 % of control
- T/C (dose: 200.0 mg/kg/injection, schedule: Q01DX009 (ip), vehicle: Klucel (hydroxypropylcellulose) (HPC)): 98 % of control

Structure (SMILES): COc1ccc2ccccc2c1/C=N/N1CCCCC1
- T/C (dose: 100.0 mg/kg/injection, schedule: Q01DX009 (ip), vehicle: saline with Tween-80): 100 % of control
- T/C (dose: 200.0 mg/kg/injection, schedule: Q01DX009 (ip), vehicle: saline with Tween-80): 93 % of control
- T/C (dose: 400.0 mg/kg/injection, schedule: Q01DX009 (ip), vehicle: saline with Tween-80): 100 % of control

Structure (SMILES): O=S(=O)(NC1CCCCC1)c1ccccc1
- T/C (dose: 75.0 mg/kg/injection, schedule: Q01DX009 (ip), vehicle: saline with Tween-80): 94 % of control
- T/C (dose: 150.0 mg/kg/injection, schedule: Q01DX009 (ip), vehicle: saline with Tween-80): 95 % of control
- T/C (dose: 300.0 mg/kg/injection, schedule: Q01DX009 (ip), vehicle: saline with Tween-80): 97 % of control

Structure (SMILES): N#CCCS(=O)(=O)O
- T/C [7]: 100 % of control
- T/C (dose: 100.0 mg/kg/injection, schedule: Q01DX009 (ip), vehicle: saline): 98 % of control and 122 % of control
- T/C (dose: 100.0 mg/kg/injection, schedule: Q04DX002 (ip), vehicle: saline): 97 % of control
- T/C (dose: 100.0 mg/kg/injection, schedule: Q04DX003 (ip), vehicle: saline): 95 % of control
- T/C [10]: 97 % of control
- T/C (dose: 200.0 mg/kg/injection, schedule: Q01DX009 (ip), vehicle: saline): 98 % of control and 108 % of control
- T/C (dose: 200.0 mg/kg/injection, schedule: Q04DX002 (ip), vehicle: saline): 106 % of control and 90 % of control
- T/C (dose: 200.0 mg/kg/injection, schedule: Q04DX003 (ip), vehicle: saline): 103 % of control
- T/C [11]: 105 % of control
- T/C (dose: 400.0 mg/kg/injection, schedule: Q01DX009 (ip), vehicle: saline): 102 % of control and 108 % of control
- T/C (dose: 400.0 mg/kg/injection, schedule: Q04DX002 (ip), vehicle: saline): 87 % of control and 92 % of control
- T/C (dose: 400.0 mg/kg/injection, schedule: Q04DX003 (ip), vehicle: saline): 97 % of control

Structure (SMILES): COc1ccc(NC(=O)N(O)C2(C#N)CCCCC2)cc1
- T/C (dose: 100.0 mg/kg/injection, schedule: Q01DX001 (ip), vehicle: carboxymethylcellulose (CMC)): 98 % of control
- T/C (dose: 200.0 mg/kg/injection, schedule: Q01DX001 (ip), vehicle: carboxymethylcellulose (CMC)): 94 % of control
- T/C (dose: 400.0 mg/kg/injection, schedule: Q01DX001 (ip), vehicle: carboxymethylcellulose (CMC)): 88 % of control

Structure (SMILES): N=c1c(C(=O)O)cccn1O
- T/C (dose: 87.5 mg/kg/injection, schedule: Q01DX009 (ip), vehicle: Klucel (hydroxypropylcellulose) (HPC)): 105 % of control
- T/C (dose: 175.0 mg/kg/injection, schedule: Q01DX009 (ip), vehicle: Klucel (hydroxypropylcellulose) (HPC)): 94 % of control
- T/C (dose: 350.0 mg/kg/injection, schedule: Q01DX009 (ip), vehicle: Klucel (hydroxypropylcellulose) (HPC)): 95 % of control
